Test results reported in patent US20130267551A1, “SUBSTITUTED HYDROGENATED THIENO-PYRROLO[3,2-C]PYRIDINE, LIGANDS, A PHARMACEUTICAL COMPOSITION AND A METHOD FOR USING THE ABOVE” (ALLA CHEM, LLC, priority 2010, published 2013).
Where a name gives a salt, the structure may show the parent alone.

Legend:
Adrenergic α1A = test: competitive radioligand binding, Adrenergic α1A; conditions: compound concentration of 1 μM
Protocol: (§1) Profiles of pharmacological activity of thieno-pyrrolo[3,2-c]pyridines of the general formula 1. Biological activity test of compounds of the general formula 1 was carried out in the setting of competitive radioligand binding [I. Okun, S. Tkachenko, A. Khvat, et al., Current Alzheimer Research, 7(2), 97-112 (2010)], using a wide range of therapeutic targets including G-protein coupled receptors (GPCR), ion channels and neuromediator transporters. The tested activity was determined by quantitative measurement of radio-labelled ligand displacement by tested compounds of the general formula 1 at their concentration of 1 μM.

Adrenergic α1B = test: competitive radioligand binding, Adrenergic α1B; conditions: compound concentration of 1 μM
Protocol: as §1

Adrenergic α1D = target: T1, Adrenergic α1D (Homo sapiens, UniProt P25100); test: competitive radioligand binding, Adrenergic α1D; conditions: compound concentration of 1 μM
T1 sequence (P25100 1-572): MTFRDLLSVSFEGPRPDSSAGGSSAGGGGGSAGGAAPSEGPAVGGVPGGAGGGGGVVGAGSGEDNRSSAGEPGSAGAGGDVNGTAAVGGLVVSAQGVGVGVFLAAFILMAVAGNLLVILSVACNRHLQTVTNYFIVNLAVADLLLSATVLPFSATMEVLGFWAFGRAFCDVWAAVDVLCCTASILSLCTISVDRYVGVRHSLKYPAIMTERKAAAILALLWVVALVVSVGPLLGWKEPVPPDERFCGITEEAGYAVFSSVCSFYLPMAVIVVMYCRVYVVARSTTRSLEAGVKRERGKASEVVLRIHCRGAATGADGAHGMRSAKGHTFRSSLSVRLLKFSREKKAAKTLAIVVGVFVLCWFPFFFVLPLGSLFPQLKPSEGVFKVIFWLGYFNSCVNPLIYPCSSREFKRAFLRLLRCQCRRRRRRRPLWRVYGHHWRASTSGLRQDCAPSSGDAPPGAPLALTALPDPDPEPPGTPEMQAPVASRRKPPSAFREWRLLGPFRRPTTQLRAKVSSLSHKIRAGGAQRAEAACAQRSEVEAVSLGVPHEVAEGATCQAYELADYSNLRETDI
Protocol: as §1

Adrenergic α2A = target: T2, Adrenergic α2A (Homo sapiens, UniProt P08913); test: competitive radioligand binding, Adrenergic α2A; conditions: compound concentration of 1 μM
T2 sequence (P08913 1-465): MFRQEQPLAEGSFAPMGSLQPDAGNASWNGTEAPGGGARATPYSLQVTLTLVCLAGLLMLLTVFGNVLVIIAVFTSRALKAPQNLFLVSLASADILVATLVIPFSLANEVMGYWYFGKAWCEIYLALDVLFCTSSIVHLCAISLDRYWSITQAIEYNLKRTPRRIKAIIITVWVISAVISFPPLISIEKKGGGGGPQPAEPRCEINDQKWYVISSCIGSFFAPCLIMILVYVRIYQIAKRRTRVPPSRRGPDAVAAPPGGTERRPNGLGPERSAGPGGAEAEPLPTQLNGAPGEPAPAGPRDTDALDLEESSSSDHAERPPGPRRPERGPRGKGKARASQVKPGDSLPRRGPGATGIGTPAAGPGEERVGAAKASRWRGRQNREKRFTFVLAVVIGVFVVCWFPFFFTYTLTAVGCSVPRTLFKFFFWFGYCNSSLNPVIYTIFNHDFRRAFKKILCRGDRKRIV
Protocol: as §1

Dopaminergic D1 = Dopaminergic D1 (Homo sapiens, UniProt P21728); test: competitive radioligand binding, Dopaminergic D1; conditions: compound concentration of 1 μM
Protocol: as §1

Dopaminergic D2L = Dopaminergic D2L (Homo sapiens, UniProt P14416); test: competitive radioligand binding, Dopaminergic D2L; conditions: compound concentration of 1 μM
Protocol: as §1

Dopaminergic D2S = Dopaminergic D2S (Homo sapiens, UniProt P14416); test: competitive radioligand binding, Dopaminergic D2S; conditions: compound concentration of 1 μM
Protocol: as §1

Dopaminergic D3 = Dopaminergic D3 (Homo sapiens, UniProt P35462); test: competitive radioligand binding, Dopaminergic D3; conditions: compound concentration of 1 μM
Protocol: as §1

Dopaminergic D4.2 = target: T3, Dopaminergic D4.2 (Homo sapiens, UniProt P21917, DEL265-296); test: competitive radioligand binding, Dopaminergic D4.2; conditions: compound concentration of 1 μM
T3 sequence (P21917 with tags, fused parts or gaps DEL265-296): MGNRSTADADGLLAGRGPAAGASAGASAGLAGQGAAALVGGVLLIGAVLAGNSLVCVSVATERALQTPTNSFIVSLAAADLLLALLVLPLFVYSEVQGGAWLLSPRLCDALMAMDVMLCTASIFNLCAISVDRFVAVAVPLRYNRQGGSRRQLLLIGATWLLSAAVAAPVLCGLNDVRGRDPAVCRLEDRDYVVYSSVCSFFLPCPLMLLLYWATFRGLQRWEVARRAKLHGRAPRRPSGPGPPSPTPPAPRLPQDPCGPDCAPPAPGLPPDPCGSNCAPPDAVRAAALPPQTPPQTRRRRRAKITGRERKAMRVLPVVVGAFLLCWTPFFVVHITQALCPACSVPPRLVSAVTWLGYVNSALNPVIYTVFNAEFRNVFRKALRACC
Protocol: as §1

Histaminergic H1 = Histaminergic H1 (Homo sapiens, UniProt P35367); test: competitive radioligand binding, Histaminergic H1; conditions: compound concentration of 1 μM
Protocol: as §1

Histaminergic H2 = Histaminergic H2 (Homo sapiens, UniProt P25021); test: competitive radioligand binding, Histaminergic H2; conditions: compound concentration of 1 μM
Protocol: as §1

Histaminergic H3 = Histaminergic H3 (Homo sapiens, UniProt Q9Y5N1); test: competitive radioligand binding, Histaminergic H3; conditions: compound concentration of 1 μM; in % (unit assumed)
Protocol: as §1

Serotoninergic 5-HT1A = target: T4, Serotoninergic 5-HT1A (Homo sapiens, UniProt P08908); test: competitive radioligand binding, Serotoninergic 5-HT1A; conditions: compound concentration of 1 μM
T4 sequence (P08908 1-422): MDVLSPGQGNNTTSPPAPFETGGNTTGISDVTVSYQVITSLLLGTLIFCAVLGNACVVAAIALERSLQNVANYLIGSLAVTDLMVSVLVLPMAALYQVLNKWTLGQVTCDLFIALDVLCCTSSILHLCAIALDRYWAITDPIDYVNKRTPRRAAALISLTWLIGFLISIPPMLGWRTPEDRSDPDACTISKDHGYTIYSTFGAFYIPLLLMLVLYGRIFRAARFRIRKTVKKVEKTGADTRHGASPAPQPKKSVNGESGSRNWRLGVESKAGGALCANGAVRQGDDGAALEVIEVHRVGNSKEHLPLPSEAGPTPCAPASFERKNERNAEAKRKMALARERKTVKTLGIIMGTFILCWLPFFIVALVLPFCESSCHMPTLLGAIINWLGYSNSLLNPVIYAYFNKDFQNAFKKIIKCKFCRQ
Protocol: as §1

Serotoninergic 5-HT1B = test: competitive radioligand binding, Serotoninergic 5-HT1B; conditions: compound concentration of 1 μM
Protocol: as §1

Serotoninergic 5-HT2A = Serotoninergic 5-HT2A (Homo sapiens, UniProt P28223); test: competitive radioligand binding, Serotoninergic 5-HT2A; conditions: compound concentration of 1 μM
Protocol: as §1

Serotoninergic 5-HT2B = Serotoninergic 5-HT2B (Homo sapiens, UniProt P41595); test: competitive radioligand binding, Serotoninergic 5-HT2B; conditions: compound concentration of 1 μM
Protocol: as §1

Serotoninergic 5-HT2C = target: T5, Serotoninergic 5-HT2C (Homo sapiens, UniProt P28335); test: competitive radioligand binding, Serotoninergic 5-HT2C; conditions: compound concentration of 1 μM
T5 sequence (P28335 33-458): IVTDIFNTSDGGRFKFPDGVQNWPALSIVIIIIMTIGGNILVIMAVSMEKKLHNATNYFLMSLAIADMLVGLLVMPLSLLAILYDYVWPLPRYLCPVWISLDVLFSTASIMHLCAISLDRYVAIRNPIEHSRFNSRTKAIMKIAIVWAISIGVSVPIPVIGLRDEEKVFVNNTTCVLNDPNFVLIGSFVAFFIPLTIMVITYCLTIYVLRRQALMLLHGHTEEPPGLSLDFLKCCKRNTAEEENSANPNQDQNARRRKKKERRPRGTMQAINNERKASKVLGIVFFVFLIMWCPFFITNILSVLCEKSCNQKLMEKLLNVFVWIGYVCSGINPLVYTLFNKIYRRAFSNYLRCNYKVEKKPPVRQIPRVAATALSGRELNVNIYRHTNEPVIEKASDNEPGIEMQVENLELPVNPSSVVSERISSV
Protocol: as §1

Serotoninergic 5-HT6 = Serotoninergic 5-HT6 (Homo sapiens, UniProt P50406); test: competitive radioligand binding, Serotoninergic 5-HT6; conditions: compound concentration of 1 μM
Protocol: as §1

Serotoninergic 5-HT7 = Serotoninergic 5-HT7 (Homo sapiens, UniProt P34969); test: competitive radioligand binding, Serotoninergic 5-HT7; conditions: compound concentration of 1 μM
Protocol: as §1

[1] = tested on: Therapeutic targets (Adrenergic, Dopaminergic, Histaminergic, Serotoninergic); test: Profiles of pharmacological activity in competitive radioligand binding (whole panel); conditions: 1 μM, grades not defined
Protocol: as §1

Sequence of Dopaminergic D1 (P21728 whole entry): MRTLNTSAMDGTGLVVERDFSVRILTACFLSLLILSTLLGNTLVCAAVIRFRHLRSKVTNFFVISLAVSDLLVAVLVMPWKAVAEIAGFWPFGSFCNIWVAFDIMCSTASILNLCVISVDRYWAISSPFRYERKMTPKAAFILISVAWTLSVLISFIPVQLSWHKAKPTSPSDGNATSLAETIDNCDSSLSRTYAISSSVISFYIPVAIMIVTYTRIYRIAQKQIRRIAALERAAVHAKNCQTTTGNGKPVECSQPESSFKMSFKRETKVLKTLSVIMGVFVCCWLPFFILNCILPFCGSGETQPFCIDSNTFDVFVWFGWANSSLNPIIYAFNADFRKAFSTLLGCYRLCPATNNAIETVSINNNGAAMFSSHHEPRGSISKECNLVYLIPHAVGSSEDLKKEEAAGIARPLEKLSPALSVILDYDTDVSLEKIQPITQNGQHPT
Sequence of Dopaminergic D2L (P14416 whole entry): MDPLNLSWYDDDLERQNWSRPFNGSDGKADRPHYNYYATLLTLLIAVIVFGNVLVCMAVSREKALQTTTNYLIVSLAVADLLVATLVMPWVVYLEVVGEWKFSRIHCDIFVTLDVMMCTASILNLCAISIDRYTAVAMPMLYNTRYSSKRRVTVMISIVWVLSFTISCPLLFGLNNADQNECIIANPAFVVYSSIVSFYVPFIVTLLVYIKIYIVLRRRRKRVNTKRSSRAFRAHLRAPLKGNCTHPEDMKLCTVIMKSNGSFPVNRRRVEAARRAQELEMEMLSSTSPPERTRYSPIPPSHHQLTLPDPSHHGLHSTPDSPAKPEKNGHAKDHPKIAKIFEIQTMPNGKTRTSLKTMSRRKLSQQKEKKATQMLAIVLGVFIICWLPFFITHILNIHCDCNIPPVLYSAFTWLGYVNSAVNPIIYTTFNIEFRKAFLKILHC
Sequence of Dopaminergic D2S (P14416 1-414 isoform P14416-2): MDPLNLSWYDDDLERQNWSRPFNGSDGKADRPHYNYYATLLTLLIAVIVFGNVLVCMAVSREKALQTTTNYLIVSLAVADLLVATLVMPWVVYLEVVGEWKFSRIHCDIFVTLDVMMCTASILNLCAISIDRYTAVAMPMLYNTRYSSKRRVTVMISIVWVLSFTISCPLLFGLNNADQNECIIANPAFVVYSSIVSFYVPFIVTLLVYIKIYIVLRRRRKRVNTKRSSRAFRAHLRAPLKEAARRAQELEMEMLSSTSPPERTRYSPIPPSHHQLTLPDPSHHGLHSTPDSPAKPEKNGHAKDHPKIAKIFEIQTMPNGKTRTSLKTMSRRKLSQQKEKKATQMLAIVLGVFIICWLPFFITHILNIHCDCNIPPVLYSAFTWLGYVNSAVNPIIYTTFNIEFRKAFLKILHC
Sequence of Histaminergic H1 (P35367 whole entry): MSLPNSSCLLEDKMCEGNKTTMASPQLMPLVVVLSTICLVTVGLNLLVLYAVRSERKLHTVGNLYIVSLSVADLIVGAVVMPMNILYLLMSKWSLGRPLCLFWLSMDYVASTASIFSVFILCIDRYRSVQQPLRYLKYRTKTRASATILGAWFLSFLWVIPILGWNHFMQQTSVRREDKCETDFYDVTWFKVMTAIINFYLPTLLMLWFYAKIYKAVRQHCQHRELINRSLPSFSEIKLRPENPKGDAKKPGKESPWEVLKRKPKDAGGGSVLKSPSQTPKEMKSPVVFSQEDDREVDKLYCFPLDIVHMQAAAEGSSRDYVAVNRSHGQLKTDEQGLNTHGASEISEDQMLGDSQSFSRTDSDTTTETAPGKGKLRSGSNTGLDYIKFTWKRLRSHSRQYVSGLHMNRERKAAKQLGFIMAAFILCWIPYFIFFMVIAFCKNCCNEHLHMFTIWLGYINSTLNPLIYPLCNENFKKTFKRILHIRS
Sequence of Serotoninergic 5-HT6 (P50406 whole entry): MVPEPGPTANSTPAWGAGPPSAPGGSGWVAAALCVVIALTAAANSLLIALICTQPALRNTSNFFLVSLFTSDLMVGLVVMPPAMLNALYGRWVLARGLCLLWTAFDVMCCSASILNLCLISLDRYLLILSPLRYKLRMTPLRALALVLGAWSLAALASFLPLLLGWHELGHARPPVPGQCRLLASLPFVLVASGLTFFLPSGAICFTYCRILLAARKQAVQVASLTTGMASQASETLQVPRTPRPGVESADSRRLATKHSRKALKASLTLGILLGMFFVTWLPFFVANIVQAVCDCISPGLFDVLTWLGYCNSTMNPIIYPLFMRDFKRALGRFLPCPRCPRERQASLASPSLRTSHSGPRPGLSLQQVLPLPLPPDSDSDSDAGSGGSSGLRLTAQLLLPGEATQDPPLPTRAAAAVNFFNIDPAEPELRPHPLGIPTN
Sequence of Dopaminergic D3 (P35462 whole entry): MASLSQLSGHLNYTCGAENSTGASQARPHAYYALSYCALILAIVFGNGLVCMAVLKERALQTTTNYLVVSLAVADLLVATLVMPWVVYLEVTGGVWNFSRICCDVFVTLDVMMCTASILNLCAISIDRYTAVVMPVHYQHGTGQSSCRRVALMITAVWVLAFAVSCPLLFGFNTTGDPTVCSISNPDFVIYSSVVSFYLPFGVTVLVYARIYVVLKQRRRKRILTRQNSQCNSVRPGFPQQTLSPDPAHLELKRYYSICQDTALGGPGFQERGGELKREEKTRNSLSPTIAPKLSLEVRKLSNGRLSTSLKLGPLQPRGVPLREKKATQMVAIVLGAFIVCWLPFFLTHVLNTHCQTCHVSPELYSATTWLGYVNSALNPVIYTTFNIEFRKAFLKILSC
Sequence of Histaminergic H2 (P25021 whole entry): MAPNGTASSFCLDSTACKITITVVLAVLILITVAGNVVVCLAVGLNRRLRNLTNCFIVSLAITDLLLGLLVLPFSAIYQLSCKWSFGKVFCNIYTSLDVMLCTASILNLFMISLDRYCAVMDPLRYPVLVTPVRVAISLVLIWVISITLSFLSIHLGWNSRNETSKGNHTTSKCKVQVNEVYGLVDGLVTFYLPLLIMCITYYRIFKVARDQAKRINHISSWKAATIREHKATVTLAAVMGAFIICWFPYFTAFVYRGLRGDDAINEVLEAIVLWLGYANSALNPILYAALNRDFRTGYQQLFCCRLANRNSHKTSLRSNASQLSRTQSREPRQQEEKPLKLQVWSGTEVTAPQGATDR
Sequence of Serotoninergic 5-HT7 (P34969 whole entry): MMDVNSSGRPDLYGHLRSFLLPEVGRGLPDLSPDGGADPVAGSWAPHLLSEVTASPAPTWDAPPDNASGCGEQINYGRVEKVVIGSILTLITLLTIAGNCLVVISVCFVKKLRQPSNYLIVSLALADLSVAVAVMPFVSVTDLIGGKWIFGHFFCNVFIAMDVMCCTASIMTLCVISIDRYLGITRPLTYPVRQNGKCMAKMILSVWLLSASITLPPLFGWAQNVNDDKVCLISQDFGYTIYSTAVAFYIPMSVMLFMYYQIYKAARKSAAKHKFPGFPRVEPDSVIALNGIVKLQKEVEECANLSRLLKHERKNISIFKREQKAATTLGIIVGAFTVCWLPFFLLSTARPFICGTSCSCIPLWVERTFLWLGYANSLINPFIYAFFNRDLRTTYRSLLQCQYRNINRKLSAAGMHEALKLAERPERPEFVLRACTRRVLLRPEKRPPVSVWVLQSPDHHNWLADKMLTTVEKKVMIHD
Sequence of Histaminergic H3 (Q9Y5N1 whole entry): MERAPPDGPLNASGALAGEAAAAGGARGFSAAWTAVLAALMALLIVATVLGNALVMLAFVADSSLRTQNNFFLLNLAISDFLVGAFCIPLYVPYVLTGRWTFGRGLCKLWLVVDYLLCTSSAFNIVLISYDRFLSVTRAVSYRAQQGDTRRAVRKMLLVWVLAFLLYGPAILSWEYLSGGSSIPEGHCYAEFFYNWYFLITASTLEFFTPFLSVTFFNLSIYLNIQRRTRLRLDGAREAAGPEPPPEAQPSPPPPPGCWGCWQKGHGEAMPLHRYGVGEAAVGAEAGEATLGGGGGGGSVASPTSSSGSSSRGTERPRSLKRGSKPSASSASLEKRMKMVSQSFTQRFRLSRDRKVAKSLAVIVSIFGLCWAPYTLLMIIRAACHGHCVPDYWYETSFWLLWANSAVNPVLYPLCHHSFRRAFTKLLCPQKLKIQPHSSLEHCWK
Sequence of Serotoninergic 5-HT2A (P28223 whole entry): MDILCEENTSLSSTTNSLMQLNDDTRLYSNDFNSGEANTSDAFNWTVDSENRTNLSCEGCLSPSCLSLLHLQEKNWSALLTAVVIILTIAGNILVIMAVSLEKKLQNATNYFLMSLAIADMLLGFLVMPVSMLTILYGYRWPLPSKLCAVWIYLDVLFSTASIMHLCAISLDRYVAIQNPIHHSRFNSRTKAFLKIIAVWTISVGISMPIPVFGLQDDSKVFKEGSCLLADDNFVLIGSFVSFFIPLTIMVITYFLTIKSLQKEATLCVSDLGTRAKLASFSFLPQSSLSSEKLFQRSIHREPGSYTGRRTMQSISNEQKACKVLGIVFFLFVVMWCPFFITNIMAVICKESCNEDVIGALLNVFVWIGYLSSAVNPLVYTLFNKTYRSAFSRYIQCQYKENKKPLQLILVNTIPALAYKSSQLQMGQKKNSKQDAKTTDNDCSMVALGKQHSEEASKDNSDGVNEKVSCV
Sequence of Serotoninergic 5-HT2B (P41595 whole entry): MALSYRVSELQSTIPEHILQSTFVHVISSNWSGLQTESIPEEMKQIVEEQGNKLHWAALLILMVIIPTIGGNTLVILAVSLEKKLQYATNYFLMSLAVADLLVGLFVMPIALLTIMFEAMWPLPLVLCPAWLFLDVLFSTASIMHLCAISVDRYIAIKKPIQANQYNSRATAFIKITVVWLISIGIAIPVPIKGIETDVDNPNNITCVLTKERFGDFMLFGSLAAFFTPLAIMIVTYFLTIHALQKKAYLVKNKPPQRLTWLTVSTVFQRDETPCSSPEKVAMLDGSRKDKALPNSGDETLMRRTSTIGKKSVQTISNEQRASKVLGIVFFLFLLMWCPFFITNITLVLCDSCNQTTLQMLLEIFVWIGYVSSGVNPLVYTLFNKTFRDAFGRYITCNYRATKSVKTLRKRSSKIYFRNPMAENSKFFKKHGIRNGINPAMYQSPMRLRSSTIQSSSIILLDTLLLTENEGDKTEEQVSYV

Row | SMILES | radio-labelled ligand displacement, Adrenergic α1A (Adrenergic α1A) [%] | radio-labelled ligand displacement, Adrenergic α1B (Adrenergic α1B) [%] | radio-labelled ligand displacement, Adrenergic α1D (Adrenergic α1D) [%] | radio-labelled ligand displacement, Adrenergic α2A (Adrenergic α2A) [%] | radio-labelled ligand displacement, Dopaminergic D1 (Dopaminergic D1) [%] | radio-labelled ligand displacement, Dopaminergic D2L (Dopaminergic D2L) [%] | radio-labelled ligand displacement, Dopaminergic D2S (Dopaminergic D2S) [%] | radio-labelled ligand displacement, Dopaminergic D3 (Dopaminergic D3) [%] | radio-labelled ligand displacement, Dopaminergic D4.2 (Dopaminergic D4.2) [%] | radio-labelled ligand displacement, Histaminergic H1 (Histaminergic H1) [%] | radio-labelled ligand displacement, Histaminergic H2 (Histaminergic H2) [%] | radio-labelled ligand displacement, Histaminergic H3 (Histaminergic H3) | radio-labelled ligand displacement, Serotoninergic 5-HT1A (Serotoninergic 5-HT1A) [%] | radio-labelled ligand displacement, Serotoninergic 5-HT1B (Serotoninergic 5-HT1B) [%] | radio-labelled ligand displacement, Serotoninergic 5-HT2A (Serotoninergic 5-HT2A) [%] | radio-labelled ligand displacement, Serotoninergic 5-HT2B (Serotoninergic 5-HT2B) [%] | radio-labelled ligand displacement, Serotoninergic 5-HT2C (Serotoninergic 5-HT2C) [%] | radio-labelled ligand displacement, Serotoninergic 5-HT6 (Serotoninergic 5-HT6) [%] | radio-labelled ligand displacement, Serotoninergic 5-HT7 (Serotoninergic 5-HT7) [%] | grade of the activity profile (poor / satisfactory / good) [1]
1 | Cc1csc2c1c1c(n2CCCc2ccccc2)CCN(C)C1 [3.12(1)•HCl] | 98 | 99 | 92 | 101 | 57 | 82 | 89 | 75 | 73 | 98 | 99 | 11 | 43 | 54 | 99 | 91 | 97 | 101 | 98 | good
2 | Cc1cc2c3c(n(CCc4ccc(Cl)cc4)c2s1)C(C)CN(C)C3 (stereo not shown) [3.6(4)•HCl, 2,5,7-trimethyl-8-(4-chlorophenethyl)-4,5,6,7-tetrahydro-5H-thieno[3′,2′:4,5]pyrrolo[3,2-c]pyridine] | 89 | 91 | 89 | 93 | 56 | 45 | 72 | 63 | 54 | 95 | 63 | 8 | 29 | 41 | 97 | 78 | 96 | 99 | 99 | good
3 | CN1CCc2c(c3cc(Cl)sc3n2CCCc2cccc(F)c2)C1 [3.12(6)•HCl, 5-methyl-8-[(3-fluorophenyl)propyl]-2-chloro-4,5,6,7-tetrahydro-5H-thieno[3′,2′:4,5]pyrrolo[3,2-c]pyridine] | 84 | 96 | 83 | 91 | 63 | 81 | 77 | 69 | 68 | 97 | 91 | −1 | 50 | 43 | 97 | 91 | 98 | 84 | 95 | good
4 | Cc1cc2c3c(n(CC(O)c4ccccc4)c2s1)CCN(C)C3.Cl (stereo not shown) [3.7(1)•HCl, 2-(2,5-Dimethyl-4,5,6,7-tetrahydro-5H-thieno[3′,2′:4,5]pyrrolo[3,2-c]pyridin-8-yl)-1-phenylethanol hydrochloride] | 79 | 89 | 86 | 91 | 47 | 35 | 29 | 23 | 33 | 89 | 57 | −3 | 18 | 30 | 97 | 63 | 94 | 99 | 96 | –
